Test results taken from patent US20260207623A1, “USE OF ESTETROL IN HEPATICALLY IMPAIRED PATIENTS” (ESTETRA SRL, priority 2022, published 2026).

System: female subjects with normal hepatic function, mild, moderate or severe hepatic impairment
Assay: Safety and tolerability (TEAEs, clinical laboratory, vital signs, physical examination) after a single oral dose of 20 mg E4 monohydrate in the hepatic impairment study
Type: in vivo, human
Settings: single oral 20 mg
Description: This was a Phase 1, multi-centre, open-label, PK, and safety study of a single oral dose of 20 mg E4 monohydrate in female subjects with normal hepatic function (Group 1), mild hepatic impairment (Group 2), moderate hepatic impairment (Group 3), and severe hepatic impairment (Group 4), as defined using the Child-Pugh classification at Screening.
Safety and tolerability assessments consisted of treatment-emergent AEs (TEAEs), clinical laboratory, vital signs, physical examination, and gynecological examination. Assessments were performed in accordance with Table 2 and Table 3 in Section 2.5.1.
AEs/TEAEs were recorded after signing of the ICF until completion of the follow up visit. Any clinically significant observations in results of clinical laboratory, vital signs, or physical examinations were recorded as AEs.
A TEAE is defined as any event not present prior to administration of the study drug or any event already present that worsens in either severity or frequency following exposure to the study drug.
The below listed tests were to be performed by the local laboratories at time points indicated in the Schedule of Assessments (Table 2).
Systolic and diastolic blood pressure and pulse were recorded after the subject had been resting for at least 5 minutes in the supine position at time points indicated in the Schedule of Assessments (Table 2). These assessments were made using an automated device. Body temperature and respiratory rate were measured subsequently.
A complete physical examination consisting of a review of all body systems was performed at time points indicated in the Schedule of Assessments (Table 2). A symptom-directed physical examination could be conducted at any time per Investigator's discretion.
2.6.2.2 Evaluation of Safety and Tolerability Safety and tolerability were assessed through TEAEs, clinical laboratory, vital signs, and physical examination findings, and any other parameter that was relevant for safety assessment.
A listing of all individual AEs is provided. Summary tables of TEAEs are presented by system organ class (SOC) based on the MedDRA terminology list (preferred terms): a table containing the number of subjects experiencing AEs by hepatic function, a table containing the number of subjects experiencing SAEs by hepatic function (if applicable), a table by hepatic function and relationship, and a table by hepatic function and severity.

[1] = Mild hepatic impairment (N = 8)
[2] = Moderate hepatic impairment (N = 8)
[3] = Normal hepatic function (N = 8)

C[C@]12CC[C@@H]3c4ccc(O)cc4CC[C@H]3[C@@H]1[C@@H](O)[C@@H](O)[C@@H]2O [E4 monohydrate, estetrol monohydrate]
TEAE by severity: Back pain, severity Mild [1]: 0 (0.0) n (%)
TEAE by severity: Back pain, severity Moderate [1]: 0 (0.0) n (%)
TEAE by severity: Diarrhea, severity Mild [1]: 0 (0.0) n (%)
TEAE by severity: Diarrhea, severity Moderate [1]: 0 (0.0) n (%)
TEAE by severity: Gastrointestinal disorders, severity Mild [1]: 0 (0.0) n (%)
TEAE by severity: Gastrointestinal disorders, severity Moderate [1]: 0 (0.0) n (%)
TEAE by severity: General disorders and administration site conditions, severity Mild [1]: 0 (0.0) n (%)
TEAE by severity: Haemarthrosis, severity Mild [1]: 1 (12.5) n (%)
TEAE by severity: Headache, severity Mild [1]: 0 (0.0) n (%)
TEAE by severity: Headache, severity Moderate [1]: 0 (0.0) n (%)
TEAE by severity: Hypertension, severity Mild [1]: 2 (25.0) n (%)
TEAE by severity: Musculoskeletal and connective tissue disorders, severity Mild [1]: 1 (12.5) n (%)
TEAE by severity: Musculoskeletal and connective tissue disorders, severity Moderate [1]: 0 (0.0) n (%)
TEAE by severity: Nervous system disorders, severity Mild [1]: 0 (0.0) n (%)
TEAE by severity: Nervous system disorders, severity Moderate [1]: 0 (0.0) n (%)
TEAE by severity: Pain in extremity, severity Mild [1]: 0 (0.0) n (%)
TEAE by severity: Pancreatitis, severity Moderate [1]: 0 (0.0) n (%)
TEAE by severity: Pyrexia, severity Mild [1]: 0 (0.0) n (%)
TEAE by severity: Renal and urinary disorders, severity Mild [1]: 0 (0.0) n (%)
TEAE by severity: Renal impairment, severity Mild [1]: 0 (0.0) n (%)
TEAE by severity: Vascular disorders, severity Mild [1]: 2 (25.0) n (%)
TEAE: Back pain [1]: 0 (0.0) n (%)
TEAE: Diarrhea [1]: 0 (0.0) n (%)
TEAE: Gastrointestinal disorders [1]: 0 (0.0) n (%)
TEAE: General disorders and administration site conditions [1]: 0 (0.0) n (%)
TEAE: Haemarthrosis [1]: 1 (12.5) n (%)
TEAE: Headache [1]: 0 (0.0) n (%)
TEAE: Hypertension [1]: 2 (25.0) n (%)
TEAE: Musculoskeletal and connective tissue disorders [1]: 1 (12.5) n (%)
TEAE: Nervous system disorders [1]: 0 (0.0) n (%)
TEAE: Pain in extremity [1]: 0 (0.0) n (%)
TEAE: Pancreatitis [1]: 0 (0.0) n (%)
TEAE: Pyrexia [1]: 0 (0.0) n (%)
TEAE: Renal and urinary disorders [1]: 0 (0.0) n (%)
TEAE: Renal impairment [1]: 0 (0.0) n (%)
TEAE: Total Subjects with at Least One TEAE [1]: 2 (25.0) n (%)
TEAE: Vascular disorders [1]: 2 (25.0) n (%)
TEAE by severity: Back pain, severity Mild [2]: 0 (0.0) n (%)
TEAE by severity: Back pain, severity Moderate [2]: 0 (0.0) n (%)
TEAE by severity: Diarrhea, severity Mild [2]: 2 (25.0) n (%)
TEAE by severity: Diarrhea, severity Moderate [2]: 0 (0.0) n (%)
TEAE by severity: Gastrointestinal disorders, severity Mild [2]: 2 (25.0) n (%)
TEAE by severity: Gastrointestinal disorders, severity Moderate [2]: 0 (0.0) n (%)
TEAE by severity: General disorders and administration site conditions, severity Mild [2]: 1 (12.5) n (%)
TEAE by severity: Haemarthrosis, severity Mild [2]: 0 (0.0) n (%)
TEAE by severity: Headache, severity Mild [2]: 1 (12.5) n (%)
TEAE by severity: Headache, severity Moderate [2]: 1 (12.5) n (%)
TEAE by severity: Hypertension, severity Mild [2]: 0 (0.0) n (%)
TEAE by severity: Musculoskeletal and connective tissue disorders, severity Mild [2]: 1 (12.5) n (%)
TEAE by severity: Musculoskeletal and connective tissue disorders, severity Moderate [2]: 0 (0.0) n (%)
TEAE by severity: Nervous system disorders, severity Mild [2]: 1 (12.5) n (%)
TEAE by severity: Nervous system disorders, severity Moderate [2]: 1 (12.5) n (%)
TEAE by severity: Pain in extremity, severity Mild [2]: 1 (12.5) n (%)
TEAE by severity: Pancreatitis, severity Moderate [2]: 0 (0.0) n (%)
TEAE by severity: Pyrexia, severity Mild [2]: 1 (12.5) n (%)
TEAE by severity: Renal and urinary disorders, severity Mild [2]: 0 (0.0) n (%)
TEAE by severity: Renal impairment, severity Mild [2]: 0 (0.0) n (%)
TEAE by severity: Vascular disorders, severity Mild [2]: 0 (0.0) n (%)
TEAE: Back pain [2]: 0 (0.0) n (%)
TEAE: Diarrhea [2]: 2 (25.0) n (%)
TEAE: Gastrointestinal disorders [2]: 2 (25.0) n (%)
TEAE: General disorders and administration site conditions [2]: 1 (12.5) n (%)
TEAE: Haemarthrosis [2]: 0 (0.0) n (%)
TEAE: Headache [2]: 2 (25.0) n (%)
TEAE: Hypertension [2]: 0 (0.0) n (%)
TEAE: Musculoskeletal and connective tissue disorders [2]: 1 (12.5) n (%)
TEAE: Nervous system disorders [2]: 2 (25.0) n (%)
TEAE: Pain in extremity [2]: 1 (12.5) n (%)
TEAE: Pancreatitis [2]: 0 (0.0) n (%)
TEAE: Pyrexia [2]: 1 (12.5) n (%)
TEAE: Renal and urinary disorders [2]: 0 (0.0) n (%)
TEAE: Renal impairment [2]: 0 (0.0) n (%)
TEAE: Total Subjects with at Least One TEAE [2]: 4 (50.0) n (%)
TEAE: Vascular disorders [2]: 0 (0.0) n (%)
TEAE by severity: Back pain, severity Mild [3]: 0 (0.0) n (%)
TEAE by severity: Back pain, severity Moderate [3]: 1 (12.5) n (%)
TEAE by severity: Diarrhea, severity Mild [3]: 0 (0.0) n (%)
TEAE by severity: Diarrhea, severity Moderate [3]: 1 (12.5) n (%)
TEAE by severity: Gastrointestinal disorders, severity Mild [3]: 0 (0.0) n (%)
TEAE by severity: Gastrointestinal disorders, severity Moderate [3]: 2 (25.0) n (%)
TEAE by severity: General disorders and administration site conditions, severity Mild [3]: 0 (0.0) n (%)
TEAE by severity: Haemarthrosis, severity Mild [3]: 0 (0.0) n (%)
TEAE by severity: Headache, severity Mild [3]: 0 (0.0) n (%)
TEAE by severity: Headache, severity Moderate [3]: 0 (0.0) n (%)
TEAE by severity: Hypertension, severity Mild [3]: 0 (0.0) n (%)
TEAE by severity: Musculoskeletal and connective tissue disorders, severity Mild [3]: 0 (0.0) n (%)
TEAE by severity: Musculoskeletal and connective tissue disorders, severity Moderate [3]: 1 (12.5) n (%)
TEAE by severity: Nervous system disorders, severity Mild [3]: 0 (0.0) n (%)
TEAE by severity: Nervous system disorders, severity Moderate [3]: 0 (0.0) n (%)
TEAE by severity: Pain in extremity, severity Mild [3]: 0 (0.0) n (%)
TEAE by severity: Pancreatitis, severity Moderate [3]: 1 (12.5) n (%)
TEAE by severity: Pyrexia, severity Mild [3]: 0 (0.0) n (%)
TEAE by severity: Renal and urinary disorders, severity Mild [3]: 0 (0.0) n (%)
TEAE by severity: Renal impairment, severity Mild [3]: 0 (0.0) n (%)
TEAE by severity: Vascular disorders, severity Mild [3]: 0 (0.0) n (%)
